Laboratory results reported in paper PMC9496321, “6-Furopyridine Hexamethylene Amiloride Is a Non-Selective P2X7 Receptor Antagonist” (Biomolecules, 2022).

Tests used:
P2X7 [1] = target: T1, P2X7 (Homo sapiens, UniProt Q99572); assay: Plate-based flow cytometric YO-PRO-1 dye uptake compound screen in RPMI8226 cells; format: cell-based; parameters: endogenous in cells; host or cells: RPMI8226 cells; settings: 5 μM compound, 250 μM ATP; also previous studies
T1 sequence (Q99572 1-595): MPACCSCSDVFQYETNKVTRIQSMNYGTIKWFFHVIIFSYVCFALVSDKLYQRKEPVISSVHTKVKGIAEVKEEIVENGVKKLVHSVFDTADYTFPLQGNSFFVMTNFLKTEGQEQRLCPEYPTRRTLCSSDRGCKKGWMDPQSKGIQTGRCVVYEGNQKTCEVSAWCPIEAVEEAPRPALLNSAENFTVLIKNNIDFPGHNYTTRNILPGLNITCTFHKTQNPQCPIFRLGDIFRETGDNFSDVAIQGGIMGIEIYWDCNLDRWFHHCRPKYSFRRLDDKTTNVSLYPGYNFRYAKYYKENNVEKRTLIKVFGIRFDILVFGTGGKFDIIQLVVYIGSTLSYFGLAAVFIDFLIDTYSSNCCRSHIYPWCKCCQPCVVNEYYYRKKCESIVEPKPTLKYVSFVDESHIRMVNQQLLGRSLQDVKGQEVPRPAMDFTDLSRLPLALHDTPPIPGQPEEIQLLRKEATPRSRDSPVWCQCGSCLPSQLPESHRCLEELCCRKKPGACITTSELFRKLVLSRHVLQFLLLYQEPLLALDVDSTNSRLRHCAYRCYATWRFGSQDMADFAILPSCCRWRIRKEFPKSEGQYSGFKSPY
Experimental: RPMI8226 cells were washed thrice with low-divalent medium (LDM) (145 mM NaCl, 2 mM KCl, 0.2 mM CaCl2, 13 mM D-glucose and 10 mM HEPES, pH 7.5) and 1 × 10^5 cells were added to each well of a 96-well flat-bottomed plate. Amiloride derivatives, at 10 μM (final concentration 5 μM) or vehicle (DMSO) were added, and plates pre-incubated (37 °C, 15 min). […] Wells were washed twice with LDM (300× g, 5 min) and cells were resuspended in LDM. Data was acquired with an Attune NxT Flow Cytometer an Autosampler (Thermo Fisher Scientific). Mean fluorescent intensity (MFI) of YO-PRO-1^+ uptake was determined using FlowJo.

P2X7 [2] = target: T1, P2X7; settings: human leukaemic lymphocytes, cited from earlier work; for inhibition of ATP-induced Na+ fluxes: 40 μM compound
P2X7 [3] = target: T1, P2X7; assay: ATP-induced YO-PRO-1 uptake into human T cells (PBMCs); format: cell-based; parameters: Human peripheral blood mononuclear cells (PBMCs) were pre-incubated with DMSO (vehicle) or 30 μM 6-FPHMA; endogenous in cells; host or cells: cryopreserved human PBMCs (CD3+, CD4+, CD8+ T cells), four donors; settings: 30 μM compound, 1 mM ATP
Experimental: ATP-mediated uptake assays were conducted as described with either ethidium bromide or YO-PRO-1 iodide. Briefly, RPMI8226, HEK-hP2X7, HEK-mP2X7, HEK-cP2X7 or cryopreserved human peripheral blood mononuclear cells (PBMCs) were washed thrice with LDM (300× g, 5 min), resuspended in LDM and 1 × 10^6 cells were added to individual tubes. Cells were pre-incubated in the absence of compound (37 °C, 5 min) or in the presence of compound or vehicle (DMSO) (37 °C, 15 min) as indicated. […] An equal volume of ice-cold Mg^2+ stop solution was added and cells centrifuged (300× g, 5 min). Cells were washed twice in LDM (300× g, 5 min), resuspended and data were collected with an LSR Fortessa X-20 flow cytometer. MFI of ethidium^+ or YO-PRO-1^2+ was determined using FlowJo.

[4] = system: hP2X7-mediated IL-1β release; assay: Whole blood IL-1β release assay; format: cell-based; settings: 30 μM compound, 6 mM ATP, LPS-primed human whole blood
Experimental: Whole blood IL-1β release assays were conducted as described. Briefly, whole human blood was mixed with an equal volume of serum-free RPMI-1640 medium containing LPS (200 ng/mL), added to a flat-bottom 96-well plate and incubated (37 °C, 95% air/5% CO2, 105 min). Compounds (30 μM) or vehicle (DMSO) were added to respective wells and incubated (37 °C, 95% air/5% CO2, 15 min). […] Plates were centrifuged (700× g, 10 min) with the resulting supernatants collected and stored at −80 °C. hIL-1β concentrations were determined using a Human IL-1β ELISA (Thermo Fisher Scientific) according to the manufacturer’s instructions. Samples above the detection limit (7500 pg/mL) were set at 7500 pg/mL for statistical analysis.

endogenous hP2X7 = target: T2, endogenous hP2X7 (Homo sapiens, UniProt Q99572); assay: ATP-induced ethidium+ uptake in RPMI8226 multiple myeloma cells (flow cytometry); format: cell-based; settings: any concentration up to 30 μM, 300 μM ATP, RPMI8226 cells
T2 construct: endogenous in cells; host or cells: RPMI8226 cells
T2 sequence (Q99572 1-595): T1 sequence (Q99572 1-595)

hP2X7 [5] = target: T3, hP2X7 (Homo sapiens, UniProt Q99572); assay: ATP-induced ethidium+ uptake in stably transfected HEK-hP2X7 cells (flow cytometry); format: cell-based; settings: any concentration up to 30 μM, 450 μM ATP, HEK-hP2X7 cells
T3 construct: expressed in transfected cells; host or cells: HEK293 cells, stably transfected (HEK-hP2X7)
T3 sequence (Q99572 1-595): T1 sequence (Q99572 1-595)

mouse (m) P2X7 = system: mouse (m) P2X7; parameters: method as in PMID 7514597; settings: 40 μM compound, Xenopus oocytes with mP2X7 mRNA; cited from earlier work
human (h) P2X7 = system: human (h) P2X7; parameters: method as in PMID 9720806; settings: 10 μM compound, HEK-hP2X7 cells; cited from earlier work
mP2X7 = system: mP2X7; parameters: method as in PMID 11181928; settings: cited from earlier work
P2X7 [6] = target: T1, P2X7; parameters: endogenous in cells; settings: human leukemic B cells, cited from earlier work
hP2X7 [7] = target: T3, hP2X7; parameters: method as in PMID 11181928; settings: 16 μM BzATP; cited from earlier work

Compound: N=C(N)NC(=O)c1nc(Cl)c(N)nc1N [Amiloride]
- block of hP2X7 in screening assay (P2X7 [1]): blocks hP2X7 relatively poorly
- inhibition of ATP-mediated Na+ fluxes (P2X7 [2]; 1 mM compound): 50%

Compound: O=C(NCC1(N2CCN(c3ccccc3)CC2)CCOCC1)c1cccnc1Sc1ccccc1 [JNJ-47965567]
- reduction of ATP-induced YO-PRO-1 uptake into CD3+ T cells (P2X7 [3]): 79 ± 14%
- reduction of ATP-induced YO-PRO-1 uptake into CD4+ T cells (P2X7 [3]): 78 ± 15%
- reduction of ATP-induced YO-PRO-1 uptake into CD8+ T cells (P2X7 [3]): 80 ± 11%
- reduction of ATP-induced IL-1β compared to vehicle control [4]: 98 ± 1%

Compound: CCN(c1nc(N)c(C(=O)N=C(N)N)nc1Cl)C(C)C [EIPA, 5-(N-ethyl-N-isopropyl) amiloride]
- inhibition of ATP-induced Na+ fluxes (P2X7 [2]): 72%

Compound: Cc1nc(N=Nc2ccc(S(=O)(=O)O)cc2S(=O)(=O)O)c(COP(=O)(O)O)c(C=O)c1O [PPADS, Pyridoxalphosphate-6-azophenyl-2′,4′-disulfonic acid]
- reduction of ATP-induced YO-PRO-1 uptake into CD3+ T cells (P2X7 [3]): 85 ± 9%
- reduction of ATP-induced YO-PRO-1 uptake into CD4+ T cells (P2X7 [3]): 85 ± 11%
- reduction of ATP-induced YO-PRO-1 uptake into CD8+ T cells (P2X7 [3]): 86 ± 7%
- reduction of ATP-induced IL-1β compared to vehicle control [4]: did not alter

Compound: CCOc1ccc(Nc2ccc(/C(=C3C=C/C(=[N+](/CC)Cc4cccc(S(=O)(=O)[O-])c4)C=C/3C)c3ccc(N(CC)Cc4cccc(S(=O)(=O)O)c4)cc3C)cc2)cc1 [BBG, Brilliant Blue G]
- reduction of ATP-induced YO-PRO-1 uptake into CD3+ T cells (P2X7 [3]): 90 ± 8%
- reduction of ATP-induced YO-PRO-1 uptake into CD4+ T cells (P2X7 [3]): 83 ± 17%
- reduction of ATP-induced YO-PRO-1 uptake into CD8+ T cells (P2X7 [3]): 72 ± 22%
- reduction of ATP-induced IL-1β compared to vehicle control [4]: did not alter

Compound: N=C(N)NC(=O)c1nc(-c2cc3cnccc3o2)c(N)nc1N [6-FPA, 6-furopyridine-substituted amiloride]
- inhibition of hP2X7-mediated dye uptake (endogenous hP2X7): did not inhibit
- inhibition of hP2X7-mediated dye uptake (hP2X7 [5]): did not inhibit

Compound: NC(N)=NC(=O)c1nc(Cl)c(N2CCCCCC2)nc1N [HMA, 5-(N,N-hexamethylene) amiloride]
- inhibition of ATP- and BzATP-induced currents (mouse (m) P2X7): partially inhibited
- inhibition of BzATP-induced inward currents (human (h) P2X7): 30%
- effect on mP2X7-mediated dye uptake at low BzATP (mP2X7; 16 μM BzATP): potentiated
- potency of inhibition of BzATP-induced uptake, mP2X7 compared to hP2X7 (mP2X7; HEK293 cells): reduced potency
- inhibition of ATP-induced Na+ fluxes (P2X7 [2]): 95%
- inhibition of ATP-induced ethidium+ uptake (P2X7 [6]; 20 μM compound): 50%
- concentration required for complete inhibition of ATP-induced ethidium+ uptake (P2X7 [6]): > 100 µM
- potentiation of dye uptake at low BzATP, hP2X7 (hP2X7 [7]): not observed
